# Assay results taken from paper PMC9147975, “New Antibacterial Chloro-Containing Polyketides from the Alga-Derived Fungus Asteromyces cruciatus KMM 4696” (Journal of Fungi, 2022).
# “Also recorded” adds a separate entry of the source.
# Tests used:
# [1] = target: T1, sortase A from Staphylococcus aureus (Staphylococcus aureus, UniProt Q2FV99); experiment: Sortase activity inhibition assay (SensoLyte 520 Sortase A Activity Assay Kit); type: biochemical; conditions: 50 μM; for effect on sortase A enzymatic activity (in words) / decrease of sortase A activity: after 10 min of incubation with the substrate
# T1 construct: purchased AnaSpec AS-72229
# T1 sequence (Q2FV99 whole entry): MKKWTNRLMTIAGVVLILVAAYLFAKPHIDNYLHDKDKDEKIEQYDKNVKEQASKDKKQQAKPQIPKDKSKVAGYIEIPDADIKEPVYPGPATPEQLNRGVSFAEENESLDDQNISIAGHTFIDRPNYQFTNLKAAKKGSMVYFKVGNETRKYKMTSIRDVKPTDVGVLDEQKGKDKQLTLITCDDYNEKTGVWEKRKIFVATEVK
# Description: The enzymatic activity of sortase A from Staphylococcus aureus was determined using SensoLyte 520 Sortase A Activity Assay Kit * Fluorimetric * (AnaSpec AS-72229, AnaSpec, San Jose, CA, USA) in accordance with the manufacturer’s instructions. […] DMSO at a concentration of 0.8% was used as a control. PCMB (4-(hydroxymercuri)benzoic acid) was used as sortase A enzyme activity inhibitor. Fluorescence was measured with a plate reader PHERAStar FS (BMG Labtech, Offenburg, Germany) for 60 min, with a time interval of 5 min. The data were processed with MARS Data Analysis v. 3.01R2 (BMG Labtech, Offenburg, Germany). The results were presented as relative fluorescent units (RFUs) and percentage of the control data, calculated using STATISTICA 10.0 software.
# [2] = tested on: Staphylococcus aureus ATCC 21027; experiment: Antimicrobial activity, bacterial growth (OD620); type: cell-based; conditions: for inhibition at 100 µM: read-out: inhibition of S. aureus growth; for change of antimicrobial activity on decrease of concentration: decrease of concentration from 100 μM (two-fold for compound 6)
# Description: The antibacterial activity of compounds 1–6 was evaluated as described previously. The bacterial culture of Staphylococcus aureus ATCC 21027 (Collection of Marine Microorganisms PIBOC FEBRAS) was cultured in a Petri dish at 37 °C for 24 h on solid medium Mueller Hinton broth with agar—16.0 g/L. The assays were performed in 96-well microplates in appropriate Mueller Hinton broth. Each well contained 90 µL of bacterial suspension (10^9 CFU/mL). Then, 10 µL diluted at concentrations from 1.5 µM to 100.0 µM using two-fold dilution was added to compounds 1–6 (DMSO concentration < 1%). Culture plates were incubated overnight at 37 °C, and the OD620 was measured using a Multiskan Spectrum spectrophotometer (Thermo Labsystems Inc., Beverly, MA, USA). Gentamicin was used as a positive control in concentration 1 mg/mL; 1% DMSO solution in PBS as a negative.
# [3] = tested on: biofilm formation of Staphylococcus aureus; experiment: Biofilm formation, crystal violet biofilm assay; type: cell-based; conditions: for inhibition at 100 µM: Staphylococcus aureus; for formation of biofilms (in words): 100 μM
# Description: The inhibition of the reducing biofilm formation and growth was assessed using the crystal violet biofilm assay as described. Mueller Hinton broth was inoculated with 10^9 CFU/mL of S. aureus overnight cultures. A total of 90 µL of this cell suspension was then dispensed into 96-well microtiter plates containing 10 µL of different concentrations of compounds 1–6. After 24 h growth at 37 °C the plates were washed with PBS to remove unbound cells. Next, the wells were stained with 0.1% crystal violet solution for 10 min at 37 °C. At the completion of the incubation, plates were washed 3 times with PBS and dried. Then, the crystal violet dye from the biofilm was solubilized with 100 µL of ethanol. A total of 100 µL of this solution was then moved to a new microtiter plate for absorbance measurement at λ = 570 nm. The results were reported as percent inhibition normalized to the wild-type control.
# [4] = tested on: human keratinocytes HaCaT co-cultivated with S. aureus; experiment: Co-cultivation of HaCaT cells with S. aureus, LDH release; type: cell-based; conditions: 10 μM, 48 h co-cultivation
# Description: Co-cultivation of HaCaT cells with S. aureus was carried out as described. HaCaT cells at a concentration of 1.5×10^4 cells per well were seeded in 96-well plates for 24 h. Then, culture medium in each well was changed with S. aureus suspension (10^2 CFU/mL) in full DMEM medium. Fresh DMEM medium without S. aureus suspension was added in other wells as needed. Compounds 1–6 at a concentration of 10 μM were added in wells after 1 h. HaCaT cells and S. aureus were cultured at 37 °C in a humidified atmosphere with 5% (v/v) CO2 for 48 h. After incubation, the plate was centrifuged at 250× g for 10 min and 50 µL of supernatant from each well was transferred into the corresponding wells of an optically clear 96-well plate. An equal volume of the reaction mixture (50 µL) from LDH Cytotoxicity Assay Kit (Abcam, Cambridge, UK) was added to each well and incubated for up to 30 min at room temperature. The absorbance of all samples was measured at λ = 450 nm using a Multiskan FC microplate photometer (Thermo Scientific, Waltham, MA, USA) and expressed in optical units (o.u.).
# [5] = tested on: Staphylococcus aureus ATCC 21027; set-up: method as in PMID 34677452; conditions: cited from earlier work
# [6] = tested on: human keratinocytes HaCaT co-cultivated with S. aureus; set-up: method as in PMID 34677452; conditions: cited from earlier work
# [7] = target: T1, sortase A from Staphylococcus aureus; conditions: cited from earlier work
# [8] = tested on: biofilm formation of Staphylococcus aureus; set-up: method as in PMID 34677452; conditions: cited from earlier work
# [9] = Staphylococcus aureus, ATCC21027, 100 μM
compound,measurement,setting,value
"C=C(C)C#C[C@@H]1C[C@H](O)[C@H](Cl)[C@@H](O)[C@H]1O (relative stereo) [Compound 2, Acrucipentyn B]",effect on sortase A enzymatic activity (in words),[1],inactive; also recorded: did not have any effect
same,inhibition at 100 µM,[2]; [9],≤ 50%
same,"effect on biofilm formation, comparison in words",[3],did not show a significant effect
same,inhibition at 100 µM,[3],30%
same,effect on LDH release (in words),[4],greatest effect; also recorded: significant activity
"C=C(C)C#C[C@@H]1C[C@H](O)[C@H](O)[C@@H](Cl)[C@@H]1O (relative stereo) [Compound 3, Acrucipentyn C]",time-dependent inhibitory effect on sortase A activity,[1]; 60 min data acquisition,detected throughout the entire period of data acquisition
same,decrease of sortase A activity,[1],30%
same,inhibition at 100 µM,[2]; [9],50%
same,change of antimicrobial activity on decrease of concentration,[2],two-fold decrease in activity
same,concentration down to which a high level of inhibition of biofilm formation is kept,[3],12.5 µM
same,formation of biofilms (in words),[3],almost absent
"C=C(C)C#CC1=C[C@@H](O)[C@@H](Cl)[C@H](O)[C@@H]1O (relative stereo) [Compound 4, Acrucipentyn D]",effect on sortase A enzymatic activity (in words),[1],less significant effects
same,inhibition at 100 µM,[2]; [9],≤ 50%
same,formation of biofilms (in words),[3],almost absent
same,change of effect on biofilm formation when diluted twice,[3]; diluted twice from 100 μM,halved
same,effect on LDH release (in words),[4],greatest effect; also recorded: significant activity
"C=C(C)C#CC1=C[C@@H](O)[C@H](O)[C@@H](Cl)[C@@H]1O (relative stereo) [Compound 5, Acrucipentyn E]",decrease of sortase A activity,[1],21%
same,inhibition at 100 µM,[2]; [9],≤ 50%
same,"effect on biofilm formation, comparison in words",[3],weaker inhibitory effect
same,inhibition at 100 µM,[3],30%
same,effect on LDH release (in words),[4],greatest effect
"C=C(C)C#CC1=C[C@@H](O)[C@@H]2O[C@@H]2[C@@H]1O (relative stereo) [Compound 6, Acrucipentyn F]",effect on sortase A enzymatic activity (in words),[1],less significant effects
same,"antimicrobial effect against S. aureus, ranking in words",[2],most pronounced antimicrobial effects
same,inhibition of S. aureus growth (in words),[2]; 100 μM,almost completely inhibited
same,change of antimicrobial activity on decrease of concentration,[2],halved
same,concentration down to which a high level of inhibition of biofilm formation is kept,[3],25 µM
same,formation of biofilms (in words),[3],almost absent
"C=C(C)C#C[C@@H]1C[C@@H](O)[C@@H](Cl)[C@H](O)[C@@H]1O [Compound 1, Acrucipentyn A]",decrease of sortase A activity,[1],18%
same,"antimicrobial effect against S. aureus, ranking in words",[2],most pronounced antimicrobial effects
same,inhibition at 12.5 µM,"[2]; Staphylococcus aureus, ATCC21027, 12.5 μM, read-out: antimicrobial activity (inhibition of S. aureus growth)",≤ 50%
same,inhibition at 100 µM,[2]; [9],60%
same,inhibition of biofilm formation,"[3]; concentrations of 12.5–100 μM, respectively",50–70%
same,effect on LDH release (in words),[4],greatest effect
flavuside B,S. aureus growth (in words),[5],able to inhibit
same,protection of HaCaT keratinocytes in co-culture model (in words),[6],protect HaCaT keratinocytes against S. aureus infection
same,sortase A enzymatic activity (in words),[7],inhibitor of sortase A enzymatic activity
same,S. aureus biofilm formation (in words),[8],able to inhibit
